Measurements from paper PMC4057637, “Efficacy of novel antibacterial compounds targeting histidine kinase YycG protein” (Applied Microbiology and Biotechnology, 2014).
Values after ≈ are worked out from the molar mass of the structure shown.

Legend:
recombinant YycG′ = biological target: T1, recombinant YycG′ (Staphylococcus epidermidis, UniProt Q5HK19); experiment: Inhibition of YycG′ autophosphorylation (Kinase-Glo Luminescent Kinase Assay); format: biochemical, S. epidermidis; conditions: for IC50: autophosphorylation of recombinant YycG′, Kinase-Glo; for inhibition of enzymatic autophosphorylation of YycG′: 100 μM derivative, YycG′ 0.13 μM
T1 construct: made in house; host or cells: E. coli BL21 (DE3)
T1 sequence (Q5HK19 370-610): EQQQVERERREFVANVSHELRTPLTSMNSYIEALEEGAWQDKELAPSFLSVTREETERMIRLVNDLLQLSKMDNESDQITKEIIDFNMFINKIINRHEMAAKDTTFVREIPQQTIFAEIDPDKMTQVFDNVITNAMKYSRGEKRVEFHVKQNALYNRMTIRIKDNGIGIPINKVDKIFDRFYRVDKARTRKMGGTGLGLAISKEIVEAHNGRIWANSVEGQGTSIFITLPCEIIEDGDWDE
Method: Recombinant YycG (YycG′, amino acids 370–610) was prepared by expressing the HATPase_c and HisKA domains of YycG in E. coli BL21 (DE3). In brief, the sequence coding for YycG′ was amplified from the genome of S. epidermidis ATCC 35984 by PCR and cloned into the pET28a (+) vector, which inserts a GB1 tag (B1 domain of protein G, 56 residues) to make the recombinant fusion protein highly soluble and stable. The recombinant YycG′ protein was fused to the GB1 tag at its N-terminus end, expressed in E. coli BL21 (DE3) and purified by Ni^2+ affinity chromatography on a Ni-NTA column (Qiagen, Germany). The purified YycG′ was cleaved by TEV protease and further purified by Ni-NTA and Superdex 75 gel filtration columns (GE Healthcare, USA).
The Kinase-Glo™ Luminescent Kinase Assay (Promega, Madison, WI, USA) was used to measure the inhibitory activities of the derivatives against the autophosphorylation activity of the recombinant YycG′ following the manufacturer’s recommendation. The derivatives were serially diluted from 200 to 1.6 μM with reaction buffer (40 mM Tris pH 8.0, 20 mM MgCl2, and 0.1 mg/ml BSA). Recombinant YycG′ (0.02 μg/μl) and diluted derivative were added into a 96-well plate and incubated at 25 °C for 30 min, and then 4 μM ATP was added into each well and incubated for another 30 min. Finally, 50 μl Kinase-Glo™ Reagent containing luciferase (kinase) and D-luciferin was added. The luminescent signal generated by luciferase was in proportion to the amount of ATP remaining in the reaction. Luminescence was detected by a Perkin Elmer Victor X5 luminescence plate reader, and the intensity was recorded as relative light units (RLU). The wells containing ATP and Kinase-Glo™ without YycG′ and derivatives or containing YycG′ plus ATP and Kinase-Glo™ without the derivatives were used as the controls. The percentage inhibition of protein phosphorylation (Rp) by the derivatives was calculated as follows: Rp=RLUYycG^’+derivative+ATP+Kinase-Glo^TM-RLUYycG^’+ATP+Kinase-Glo^TM/RLUATP+Kinase-Glo^TM-RLUYycG^’+ATP+Kinase-Glo^TM×100
The concentration of a derivative required to inhibit half of the autophosphorylation of recombinant YycG′ (half maximal inhibitory concentration, IC50) was calculated with Origin 8.0 software (Origin Lab, Northampton, USA). Three independent assays were carried out, and each was performed in quadruplicate.

Clinical MRSE strains = experiment: MIC, broth dilution; format: cell-based, S. epidermidis; conditions: Staphylococcus epidermidis; Clinical MRSE strains (n = 5)
Method: (§1) Bacterial strains S. epidermidis ATCC 12228 (nonbiofilm forming), S. epidermidis ATCC 35984 (biofilm forming), S. aureus ATCC 49230, and S. aureus ATCC 25923 were from the American Type Culture Collection (ATCC, Manassas, USA) and were cultured in tryptic soy broth medium (TSB; Oxoid Ltd., Basingstoke, England). Ten clinical methicillin-resistant staphylococcal isolates, five MRSA isolates and five MRSE isolates, were collected from Huadong Teaching Hospital in Shanghai. Escherichia coli ATCC 25922 was grown in Luria-Bertani (LB) broth. The six compounds used in this study (H2-38, H2-39, H2-57, H2-60, H2-74, and H2-81) were screened from 56 derivatives of compound 2 in which the functional groups were modified, but the thiazolidine core structure was unchanged. The compounds were synthesized by Nanjing University of Technology. To generate the derivative compounds, halogen atoms were introduced into 4-thiazolidinone compounds that contained carboxylic acid moieties of phenoxy-acetic acid, (5-vinyl-furan-2-yl)-benzoic acid or (5-vinyl-thiophene-2-yl)-benzoic acid. The derivatives were dissolved in dimethyl sulfoxide (DMSO; Amresco, USA) to 200 mM for use as stock solutions.
(§2) MICs of the derivatives for S. epidermidis and S. aureus were determined by the broth dilution method according to the National Committee for Clinical Laboratory (NCCLS) recommendations (Turnidge and Bordash [2007]). Twofold dilutions of the derivatives in tubes containing 4 ml of Mueller-Hinton broth (MH, Sigma, Germany) were made to concentrations from 200 to 0.39 μM. Overnight cultures of the bacteria were adjusted to the 0.5 McFarland standards and inoculated 1:200 into the MH broth and then incubated at 37 °C for 16–20 h. The lowest concentration inhibiting visible growth of the bacteria was recorded as minimal inhibitory concentration (MIC).

E. coli ATCC 25922 = experiment: MIC, broth dilution; format: cell-based; conditions: Escherichia coli, ATCC25922, 200 μM highest concentration used
Method: as §1, §2

Hemolytic activity = format: cell-based; conditions: healthy human erythrocytes, 5 % (v/v) suspension; for hemolysis at 1 h: at MIC
Method: The hemolytic activities of the derivatives on healthy human erythrocytes were also determined. Healthy human erythrocytes resuspended in normal saline (NS) at 5 % (v/v) were co-incubated with the derivatives at final concentrations of MIC, 4 × MIC, or 200 μM for 1 h at 37 °C in 96-well microtiter plates. The suspensions were centrifuged at 350 g for 10 min and the supernatant (100 μl) was transferred to new wells and measured at 570 nm on a spectrophotometer (Benchmark Microplate Reader; Bio-Rad, Hercules, CA, USA). The percentage of hemolysis was calculated by normalizing against the absorbance of erythrocytes treated with 1 % Triton X-100, which caused complete hemolysis; 0.1 % DMSO-treated cells were used as a control (Miyoshi et al. [1997]). The experiment was performed in quadruplicate wells and repeated independently three times.

S. aureus ATCC 49230 = experiment: MIC, broth dilution; format: cell-based; conditions: Staphylococcus aureus, ATCC49230
Method: as §2

[1] = system: S. epidermidis ATCC 12228; experiment: MIC, broth dilution; format: cell-based; conditions: Staphylococcus epidermidis, ATCC12228
Method: as §2

S. aureus ATCC 25923 = experiment: MIC, broth dilution; format: cell-based; conditions: Staphylococcus aureus, ATCC25923
Method: as §2

[2] = system: mature (24-h-old) biofilms of S. epidermidis ATCC 35984; experiment: Bacterial viability in mature biofilms by CLSM with Live/Dead staining; format: cell-based; conditions: 4 × MIC, 16 h, SYTO9/PI
Method: A diluted overnight culture of the bacteria was inoculated into cell culture glass bottom dishes (WPI, USA) and incubated at 37 °C for 24 h. […] The biofilms were washed with PBS and stained with SYTO9 and propidium iodide (PI), both of which were used at a concentration of 1 μM. SYTO9-stained live cells and PI-stained cells dead in biofilms were visualized by a Leica TCS SP5 confocal laser scanning microscope with a ×63 1.4-NA oil immersion objective. Three-dimensional biofilm images were created by IMARIS 7.0.0 software (Bitplane).

| SMILES | IC50 (recombinant YycG′) | MIC (Clinical MRSE strains) | MIC (E. coli ATCC 25922) | hemolysis at 1 h, 200 µM (Hemolytic activity) | hemolysis at 1 h (Hemolytic activity) | MIC (S. aureus ATCC 49230) | MIC [1] | MIC (S. aureus ATCC 25923) | inhibition of enzymatic autophosphorylation of YycG′ (recombinant YycG′) | proportion of viable cells in mature biofilms [2] |
| --- | --- | --- | --- | --- | --- | --- | --- | --- | --- | --- |
| CCc1ccccc1/N=C1\S/C(=C\c2ccc(OCC(=O)O)c(OC)c2)C(=O)N1c1ccccc1CC [Compound 2, {2-{4-{3-(2-ethylphenyl)-2-[(2-ethylphenyl)imino]-4-oxothiazolidin-5-ylidene}methyl}-2-methoxyphenoxy}acetic acid] | 47.9 ± 5.3 µM | 25 to 50 µM (≈ 12.9 to 25.8 µg/mL) | > 200 µM | 5.24 ± 0.21% | 2.31 ± 0.35% | 50 µM (≈ 25.8 µg/mL) | 25 µM (≈ 12.9 µg/mL) | 50 µM (≈ 25.8 µg/mL) |  |  |
| O=C(O)c1ccc(-c2ccc(C=C3SC(=Nc4ccc(F)cc4)N(c4ccc(F)cc4)C3=O)s2)cc1 [H2-60, 4-{5-{{3-(4-fluorophenyl)-2-[(4-fluorophenyl)imino]-4-oxothiazolidin-5-ylidene}methyl}thiophene-2-yl}benzoic acid] | 63.7 ± 2.3 µM | 1.5 to 3.1 µM (≈ 0.778 to 1.61 µg/mL) | > 200 µM | 0.84 ± 0.03% | 0.52 ± 0.06% | 1.5 µM (≈ 0.778 µg/mL) | 1.5 µM (≈ 0.778 µg/mL) | 1.5 µM (≈ 0.778 µg/mL) | 55.4% | 14% |
| O=C(O)COc1ccc(C=C2SC(=Nc3ccc(Cl)cc3)N(c3ccc(Cl)cc3)C2=O)cc1 [H2-74, 2-{4-{[3-(4-chlorophenyl)-2-[(4-chlorophenyl)imino]-4-oxothiazolidin-5-ylidene}methyl}phenoxy}acetic acid] | 71.2 ± 4.9 µM | 3.1 to 6.3 µM (≈ 1.55 to 3.15 µg/mL) | > 200 µM | 0.42 ± 0.03% | 0.14 ± 0.03% | 1.5 µM (≈ 0.749 µg/mL) | 1.5 µM (≈ 0.749 µg/mL) | 3.1 µM (≈ 1.55 µg/mL) | 53.9% | 32.5% |
| O=C(O)c1cccc(-c2ccc(C=C3SC(=Nc4ccc(Cl)cc4)N(c4ccc(Cl)cc4)C3=O)o2)c1 [H2-38, 3-{5-{{3-(4-chlorophenyl)-2-[(4-chlorophenyl)imino]-4-oxothiazolidin-5-ylidene}methyl}furan-2-yl}benzoic acid] | 41.4 ± 3.4 µM | 1.5 to 3.1 µM (≈ 0.803 to 1.66 µg/mL) | > 200 µM | 0.28 ± 0.03% | 0.14 ± 0.03% | 1.5 µM (≈ 0.803 µg/mL) | 1.5 µM (≈ 0.803 µg/mL) | 1.5 µM (≈ 0.803 µg/mL) | 61.8% | 42.3% |
| O=C(O)c1ccc(-c2ccc(/C=C3\S/C(=N\c4ccccc4)N(c4ccc(F)cc4)C3=O)s2)cc1 [H2-81, 4-{5-{{3-(4-fluorophenyl)-2-[(4-phenyl)imino]-4-oxothiazolidin-5-ylidene}methyl}thiophene-2-yl}benzoic acid] | 24.2 ± 1.2 µM | 1.5 µM (≈ 0.751 µg/mL) | > 200 µM | 0.1 ± 0.03% | 0.06 ± 0.09% | 1.5 µM (≈ 0.751 µg/mL) | 1.5 µM (≈ 0.751 µg/mL) | 1.5 µM (≈ 0.751 µg/mL) | 79.2% | 12.3% |
| O=C(O)c1ccc(-c2ccc(C=C3SC(=Nc4ccc(Cl)cc4)N(c4ccc(Cl)cc4)C3=O)o2)cc1 [H2-39, 4-{5-{{3-(4-chlorophenyl)-2-[(4-chlorophenyl)imino]-4-oxothiazolidin-5-ylidene}methyl}furan-2-yl}benzoic acid] | 59.8 ± 1.4 µM | 1.5 to 3.1 µM (≈ 0.803 to 1.66 µg/mL) | > 200 µM | 0.41 ± 0.05% | 0.12 ± 0.03% | 1.5 µM (≈ 0.803 µg/mL) | 1.5 µM (≈ 0.803 µg/mL) | 1.5 µM (≈ 0.803 µg/mL) | 56.3% | 55.6% |
| O=C(O)c1ccc(-c2ccc(/C=C3\S/C(=N\c4ccccc4)N(c4ccc(Cl)cc4)C3=O)o2)cc1 [H2-57, 4-{5-{{3-(4-chlorophenyl)-2-[(4-phenyl)imino]-4-oxothiazolidin-5-ylidene}methyl}furan-2-yl}benzoic acid] | 47.1 ± 1.5 µM | 1.5 to 3.1 µM (≈ 0.751 to 1.55 µg/mL) | > 200 µM | 0.16 ± 0.04% | 0.14 ± 0.03% | 1.5 µM (≈ 0.751 µg/mL) | 3.1 µM (≈ 1.55 µg/mL) | 3.1 µM (≈ 1.55 µg/mL) | 59.7% | 17.1% |
